Test results as given in patent publication US7176280B2, “Isolated polypeptides and compositions from the venom of P. transvaalicus and methods of use” (The Regents of the University of California, priority 2001, dated 2007).
“Also recorded” adds a separate entry of the source. No end group written: not given here.

Experiments:
[1] = cited from earlier work
[2] = test system: Male Swiss-Webster mice; assay: Mouse injection bioassay (intracerebroventricular; also subcutaneous, intraperitoneal); type: in vivo; conditions: for symptoms in injected mice (in words): intracerebroventricular injection, dose not given or as in the words; for symptoms in mice: 7–8 week old male Swiss-Webster mice; for Mouse (IC) high dose / Mouse (IC) low dose: preliminary biological activity
Description: (§1) Bioassays: Male Swiss-Webster mice were purchased from Charles River, Inc., and housed at the Animal Housing Facility, UC Davis. Blowfly (Sarcophaga spp.), crickets (Acheta domesticus) and Anole lizards (Anoles caroliensis) were purchased from Carolina Biologicals (Burlington, N.C.). Cotton bollworms (Heliothis virescens) were obtained from USDA/ARS (Stoneville, […].) and reared on artificial diet. Collected fractions were tested on mice by intracerebroventricular injections and by injecting last instar blowfly larvae. Third instar cotton bollworms and adult common house crickets were also used in screening for insecticidal components. Briefly, fractions were concentrated to dryness using a Heto Speed Vac (ATR, Inc. Emeryville, Calif.). Dried samples were resuspended in 10 μl 20 mM ammonium acetate buffer with 1 μg/μl BSA and incubated overnight at 4° C. to insure proper refolding before injection to the test animals. Mice were anesthetized using ethyl ether and intracerebroventricular injections of peptide solutions were executed immediately. […] All symptoms were observed and recorded up to 24 hours post injection. All experiments were carried out in accordance with the guidelines laid down by the National Institutes of Health in the USA regarding the care and use of experimental animals.
Next, the biological activities of Ikitoxin and Birtoxin were compared. Mouse biological activity was evaluated by intracerebroventricular injections of 7–8 week old male Swiss-Webster mice using […] purified toxin.
The biological activities of dortoxin, bestoxin, and ikitoxin were evaluated in blowfly larvae, tobacco budworm larvae, and mice. Blowfly larvae, tobacco budworm larvae were injected with 1 μL of fraction or toxin solution in water. The effects were observed and recorded up to 24 hrs post injection. The toxins to were also injected to mice (swiss-webster male 4–6 week old mice) through an intracerebroventricular route (brain). The mice were anesthetized using ethyl ether then injected with various doses of 5 μL of test solution. The effects were again observed and recorded up to 24 hrs post injection. […] The experiments were terminated after 48 hrs of observation. […] Bestoxin is only two amino acid different from its sister peptide dortoxin. The MALDI determined molecular masses for dortoxin (6643 Da) and bestoxin (6603 Da) also agree with the two amino acid difference of Lys20 in dortoxin to Glu20 in bestoxin and Glu45 in dortoxin to Ser45 in bestoxin.

[3] = test system: rat brain synaptosomes; type: binding; conditions: for EC50: read-out: EC50 (effective concentration)
[4] = test system: sodium channel binding site 3; assay: Ion channel binding properties of birtoxin
[5] = test system: Blowfly (Sarcophaga spp.) larvae; assay: Blowfly larvae injection bioassay; type: in vivo; conditions: for activity against blowfly (Sarcophaga) larvae (in words): injection into larvae
Description: Uctoxin HPLC Purification: Uctoxin was purified through three steps of RP-HPLC guided by insect and mouse bioassays. Initially the venom of P.transvaalicus was resuspended in solvent A (2% acetonitrile 98% water 0.1% TFA) and ran multiple times through a C4 magic bullet column hooked up to a Magic 2002 microbore HPLC System with a linear gradient of 2 to 65% solvent B (98% acetonitrile 2% water 0.1% TFA) in 15 minutes at a flow rate of 300 μL/min. as described above for ikitoxon. UV trace at 214 and 280 nm was monitored. Fraction P3 from the first column was collected, several runs were pooled and freeze dried. This fraction was run on a Michrom C18 microbore column on the same system with a linear gradient of 2 to 65% solvent B in 30 minutes at a flow rate of 50 μL/min. Peak 2 from the C18 column was further purified by running it through a microbore phenyl column on the same system with the same gradient conditions. Purity was confirmed using MALDI-TOF MS. Biological activity of peptide was monitored by intracerebroventricular injection of mice and also injections of blowfly and tobacco budworm larvae. For bioassays uctoxin was purified and resuspended in 20 mM ammonium acetate buffer with 1 ug/ul BSA. (The 50% effective doses (ED50) were determined according to Reed and Muench (Reed L. J., Muench, S. 1938 Am.J.Hyg 27, 493–497.))
as §1
The biological activities of dortoxin, bestoxin, and ikitoxin were evaluated in blowfly larvae, tobacco budworm larvae, and mice. Blowfly larvae, tobacco budworm larvae were injected with 1 μL of fraction or toxin solution in water. The effects were observed and recorded up to 24 hrs post injection. The toxins to were also injected to mice (swiss-webster male 4–6 week old mice) through an intracerebroventricular route (brain). The mice were anesthetized using ethyl ether then injected with various doses of 5 μL of test solution. The effects were again observed and recorded up to 24 hrs post injection. […] The MALDI determined molecular masses for dortoxin (6643 Da) and bestoxin (6603 Da) also agree with the two amino acid difference of Lys20 in dortoxin to Glu20 in bestoxin and Glu45 in dortoxin to Ser45 in bestoxin.

[6] = test system: Insect Lepidoptera; assay: Parakinin in vivo assay on Lepidoptera; conditions: preliminary biological activity
From the text: The preliminary biological activity of parakinins I investigated by in vivo assays conducted on insects and mice. Parakinins are active and potent against both invertebrates and vertebrates. These in vivo effects implicate potential pharmaceutical use and development. Due to the small nature of parakinins analogs of these peptides can be synthesized and tested very rapidly.

[7] = test system: Male Swiss-Webster mice; assay: Mouse injection bioassay (intracerebroventricular; also subcutaneous, intraperitoneal); type: in vivo; conditions: preliminary biological activity
[8] = intracerebroventricular, 0.2–1 mg purified toxin

RPPGFSPFR [bradykinin]
destroyed on a single passage through the pulmonary circulation ([1]; anesthetized rat): 98%–99%
half life in the systemic circulation ([1]; rat, in vivo): less than 30 seconds

bestoxin (ADVPGNYPLDKDGNTYTCLELGENKDCQKVCKLHGVQYGYCYAFSCWCKEYLDDKDSV; listed as Parabuthus transvaalicus)
sensitivity to stimuli of injected mice ([2]; intracerebroventricular): hypersensitive to stimuli
state of the mice at the end of 48 hrs ([2]; intracerebroventricular): still live, dessicated, and exhausted but still continued to roll
symptoms in injected mice (in words) [2]: contract, twist and roll around itself indefinitely

birtoxin (ADVPGNYPLDKDGNTYKCFLLGGNEECLNVCKLHGVQYGYCYASKCWCEYLEDDKDVS; not fully specified; ends and bridges not checked)
enhancement of the binding of [3H] BTX [3]: about 4.32 fold
EC50 [3]: ~5 nM
sodium channel binding site and mode of action [4]: binds to sodium channel binding site 3 and blocks the sodium channel by prolonging the inactivation
effect of injection in mice ([2]; 1 μg of pure birtoxin): induced severe neurotoxic symptoms in mice up to 24 hours but was not lethal
effect of injection in mice ([2]; 2 μg of pure peptide): lethal
symptoms in injected mice (in words) [2]: induced serious symptoms, including tremors, which lasted up to 24 hours post injection at submicrogram amounts
symptoms in mice [2, 8]: convulsions, tremors, increased heart rate and finally death
lethality to mice (summary statement) ([2]; mouse, in vivo): lethal to mice at low microgram quantities

dortoxin (ADVPGNYPLDKDGNTYTCLKLGENKDCQKVCKLHGVQYGYCYAFECWCKEYLDDKDSV; listed as Parabuthus transvaalicus)
symptoms in injected mice (in words) [2]: convulsions, tremors and death
LD99 ([2]; intracerebroventricular, Swiss-Webster male 4–6 week old mice): < 0.5 μg/20 gr of mouse

ikitoxin (ADVPGNYPLDKDGNTYKCFLLGENEECLNVCKLHGVQYGYCYASKCWCEYLEDDKDVS; listed as Parabuthus transvaalicus)
activity against blowfly (Sarcophaga) larvae (in words) [5]: not active against Sarcophaga
symptoms in injected mice (in words) [2]: induced periodic unprovoked jumps in injected mice
time course of the symptom [2, 8]: Within three hours of injection the symptom gradually faded
initial frequency of unprovoked jumps ([2]; intracerebroventricular, 0.2–1 mg purified toxin, for 20 minutes): about 3 jumps per minute
symptoms in mice [2, 8]: periodic unprovoked jumps
lethality during the observation period ([2]; intracerebroventricular, range of injected doses 0.2–1 mg): did not show lethality

parakinin-1 (PFIVPPFR; listed as Parabuthus transvaalicus)
Insect Lepidoptera [6]: Contractive paralysis
Insect blowfly ([5]; preliminary biological activity): Contractive paralysis
Mouse (SC) [7]: Hyperventilation,; also recorded: Hyperactivity
Mouse (IC) high dose [2]: Paralysis
Mouse (IC) low dose [2]: Hyperventilation,; also recorded: Hyperactivity

parakinin-2 (PFVVPPFR; listed as Parabuthus transvaalicus)
Mouse (SC) [7]: Hyperactivity
Mouse (IC) high dose [2]: Paralysis
Mouse (IC) low dose [2]: Hyperventilation,; also recorded: Hyperactivity

uctoxin
enhancement of the binding of [3H] BTX [3]: 2 fold
EC50 [3]: ~60 nM
activity against blowfly (Sarcophaga) larvae (in words) [5]: bioactivity only in the case of the first major peak
activity against blowfly (Sarcophaga) larvae (in words) ([5]; listed as Uctoxin): immediate flaccid paralysis
ED50 ([5]; last instar Sarcophaga larvae, flaccid paralysis): about 70 ng/100 mg larvae
symptoms in injected mice (in words) [2]: consistent contraction and tremors
time to lethality ([2]; intracerebroventricular, 0.5 μg of uctoxin): ≤ 30 min
